Marks after values point to notes of the source that are not given here. No end group written: not given here.
How the values were obtained:
Format in all cases: in vivo, human
Patients with BPH [1] = experiment: Example 4: acute urinary retention within 24 months, SEQ ID NO. 66 followed by oral medications or second injection vs vehicle
Description: Patients with BPH were given an intraprostatic injection under double-blind conditions by a urologist in an office setting under ultrasound guidance of either a) SEQ ID NO. 66 (Ile-Asp-Gln-Gln-Val-Leu-Ser-Arg-Ile-Lys-Leu-Glu-Ile-Lys-Arg-Cys-Leu), in phosphate buffered saline pH 7.2 (“PBS”); or b) SEQ ID NO. 66 in phosphate buffered saline pH 7.2 followed by a second injection of SEQ ID NO. 66 2.5 mg one month to 2 years later; or c) PBS vehicle alone followed by conventional oral BPH medications used to treat BPH including alpha blockers such as tamsulosin, terazosin, doxazosin, or 5-alpha reductase inhibitors such as finasteride, dutasteride, or phosphodiesterase type 5 inhibitors (PDE5 inhibitors) such as tadalafil. Patients were followed for 2 years with regular physical examinations, laboratory tests, and evaluations of symptoms. […] 66 followed by conventional medication or by another injection of SEQ ID NO. 66 there were >75% fewer instances of acute urinary retention compared to subjects who were administered only a control injection of vehicle alone.

Patients with BPH [2] = experiment: Example Two: acute urinary retention after vehicle injection followed by oral medications or SEQ ID NO. 66; details: PBS vehicle injection followed by intraprostatic injection of SEQ ID NO: 66; followed 1 to 6 years
Text: Patients with BPH were given an intraprostatic injection of PBS pH 7.2 vehicle alone, under double-blind conditions by a urologist in an office setting under ultrasound guidance. Patients were followed for 1 to 6 years with regular physical examinations, laboratory tests, and evaluations of symptoms, and treatments. […] 66 (Ile-Asp-Gln-Gln-Val-Leu-Ser-Arg-Ile-Lys-Leu-Glu-Ile-Lys-Arg-Cys-Leu).

Patients with BPH [3] = experiment: Example 5: acute urinary retention, follow-up up to 6 years, SEQ ID NO. 66 followed by oral medications or second injection vs vehicle
Description: Patients with BPH were administered an intraprostatic injection under double-blind conditions by a urologist in an office setting under ultrasound guidance of either a) SEQ ID NO. 66 (Ile-Asp-Gln-Gln-Val-Leu-Ser-Arg-Ile-Lys-Leu-Glu-Ile-Lys-Arg-Cys-Leu), in phosphate buffered saline pH 7.2 (“PBS”), followed by conventional oral BPH medications used to treat BPH including alpha blockers such as tamsulosin, terazosin, doxazosin, or 5-alpha reductase inhibitors such as finasteride, dutasteride, or phosphodiesterase type 5 inhibitors (PDE5 inhibitors) such as tadalafil. Patients were followed for up to 6 years with regular physical examinations, laboratory tests, and evaluations of symptoms; b) SEQ ID NO. 66 in phosphate buffered saline pH 7.2 followed by a second injection of SEQ ID NO. 66 2.5 mg one month to 2 years later; or c) PBS vehicle alone. […] 66 followed by conventional medication or by another injection of SEQ ID NO.

Patients with BPH [4] = experiment: Example One: incidence of acute urinary retention after intraprostatic injection, double-blind, BPH patients; details: patients with BPH who received intraprostatic SEQ ID NO: 66 2.5 mg at least once (initial or subsequent treatment); after 2 years; followed 1 to 6 years; p < .05 vs control
Text: Patients with BPH were given an intraprostatic injection of either a) SEQ ID NO. 66 (Ile-Asp-Gln-Gln-Val-Leu-Ser-Arg-Ile-Lys-Leu-Glu-Ile-Lys-Arg-Cys-Leu) in phosphate buffered saline pH 7.2 (“PBS”) or b) PBS alone, under double-blind conditions by a urologist in an office setting under ultrasound guidance. Patients were followed for 1 to 6 years with regular physical examinations, laboratory tests, and evaluations of symptoms. Both groups of subjects were subsequently given either 1) no further treatment; 2) conventional oral medications such as alpha blockers or 5-alpha reductase inhibitors; 3) an intraprostatic injection of SEQ ID NO. 66 2.5 mg or 4) more than one of the preceding. The overall incidence of acute urinary retention in all patients who received intraprostatic SEQ ID NO. […] 66 under similar conditions.

Patients with BPH [5] = experiment: Example 3: acute urinary retention after vehicle or SEQ ID NO. 66 followed by oral BPH medications; details: SEQ ID NO: 66 2.5 mg intraprostatic followed by oral medications; followed 1 to 6 years; p < .02
Description: In this example, patients with BPH were given an intraprostatic injection of PBS pH 7.2 vehicle alone or an injection of SEQ ID NO. 66 (Ile-Asp-Gln-Gln-Val-Leu-Ser-Arg-Ile-Lys-Leu-Glu-Ile-Lys-Arg-Cys-Leu), 2.5 mg in PBS, under double-blind conditions by a urologist in an office setting under ultrasound guidance. Patients were followed for 1 to 6 years with regular physical examinations, laboratory tests, and evaluations of symptoms, and treatments. […] 66 and who subsequently received conventional oral medications used to treat BPH such as the classes of approved medications listed above.

## IDQQVLSRIKLEIKRCL [SEQ ID NO: 66]
Patients with BPH [1]; SEQ ID NO. 66 followed by conventional medication or another injection of SEQ ID NO. 66, 2 years
  fewer instances of acute urinary retention compared to vehicle alone: > 75%
Patients with BPH [1]; SEQ ID NO: 66 intraprostatic followed by oral medications or another injection of SEQ ID NO: 66, followed 2 years, p < .03
  Incidence of acute urinary retention (<24 months): 0.76%*
Patients with BPH [2]
  Incidence of acute urinary retention: 2.1%
Patients with BPH [3]; SEQ ID NO. 66 followed by conventional medication or another injection of SEQ ID NO. 66, up to 6 years
  fewer instances of acute urinary retention compared to vehicle alone: > 75%
Patients with BPH [3]; SEQ ID NO: 66 intraprostatic followed by oral medications or another injection of SEQ ID NO: 66, followed up to 6 years, p < .04
  Incidence of acute urinary retention: 2%*
Patients with BPH [4]
  Incidence of acute urinary retention: 1.4%*
Patients with BPH [5]
  Incidence of acute urinary retention: 0%*

Reference: patent US10172910B2, “Method of preventing or reducing the incidence of acute urinary retention” (Nymox Corporation, priority 2016, dated 2019)
